How the values were obtained:
[1] = as a free peptide and when bound to HSPGs; cited from earlier work
Description: In addition to binding Aβ42, HSPGs regulate the formation of Aβ42 plaques, with highly-sulfated HSPGs accumulating in the plaques. Aβ peptides exist in two forms (Aβ40 or Aβ42) based on the cleavage of the amyloid precursor protein (APP) by β- and γ-secretase. Previous studies show differential phagocytosis of Aβ42 and Aβ40, yet the key amino acids essential to binding are present in Aβ40 (Fig 6C) (13–16, HHQK). However, the anionic bridge between lysine 28 and […], which is broken by HSPGs to allow the formation of Aβ42 aggregates by rapidl ...

[2] = tested on: bone-marrow derived macrophages (BMDMs) from Per2::Luc C57BL/6J mice; assay: Phagocytosis assay of HiLyte 488 labeled amyloid-beta by serum-shock synchronized macrophages (with or without heparinases); type: cell-based, mouse; conditions: ECHO v4.1 fit, average of 3 replicates, log10 mean cell fluorescence, 2 h uptake every 4 h PS16-PS40, WT Per2::Luc BMDMs
Description: To do so, we modified a previously-employed BMDM phagocytosis assay (as BMDMs are both models for activated microglia and are known to migrate into the brain in late-stage AD), to use fluorescently labeled Aβ42 to determine if the phagocytosis of Aβ42 is controlled by the circadian clock. In brief, BMDMs were derived from bone marrow progenitor cells extracted from Per2::Luc C57BL/6J mice and differentiated with recombinant Macrophage Colony Stimulating Factor (M-CSF), with flow cytometry confirming complete differentiation into naïve peripheral macrophages. […] 16 h after synchronization, confluent dishes of these BMDMs were treated HiLyte 488 labeled Aβ42 (Anaspec), in triplicate, every 4 h over a 24 h circadian period. BMDMs treated with labeled Aβ42 were harvested two hours after Aβ42 treatment and fixed with formalin. Total cellular fluorescence levels were analyzed with fluorescent confocal microscopy and quantified using a custom cell measurement MATLAB script (Fig 1A, S2 Fig, and S1 Table).
Bone marrow was harvested from the femurs and tibias of one 3–6-month-old male mouse using a 26 g needle and syringe filled with DMEM supplemented media. ACK lysing buffer (Lonza 10-548E) was used to lyse red blood cells in order to prevent erythrocyte contamination. Filtered bone marrow cells were counted using a BioRad TC20 automated cell counter and plated on 35 mm cell culture plates at a density of 1 x 10^6 in macrophage differentiation media. After three days of incubation at 37°C with 5% CO2, fresh macrophage differentiation media was added. After another 3 days of incubation, the cells were washed with 2 ml warm PBS per plate, and replaced with macrophage assay media, and the cultures were incubated for 24 h. Macrophage cultures were then washed with 2 ml warm PBS, macrophage serum starvation media was added, and the plates were incubated in the starve media for 24 h. Next, macrophage serum starvation media was removed, and macrophage serum shock media was added, and cultures were incubated for 2 h. Macrophage cultures were then washed with 2 ml warmed PBS each and macrophage media Luciferin was added. Cultures were sealed with grease and glass cover slips and placed in a LumiCycle 32 luminometer (Actimetrics) to confirm synchronization of circadian rhythmicity. Assays began 16 h post serum shock to allow the synchronized cells to return to homeostasis.
All amyloid-beta isoforms were reconstituted 24 h or less before experimentation in water and PBS (1:1) and were dissolved using sonication for approximately 30 min. The reconstituted Aβ was pooled from individual vials before aliquoting for each experimental replicate. The aliquots were then flash frozen and stored at -80°C until 20 min before use.
Using synchronized macrophages (as described above) starting at PS16 macrophages were treated every 4 h for 24 h, in triplicate, with 115 μl (0.25 mg/ml) of fluorescently labeled amyloid-beta (PS16, PS20, PS24, PS28, PS32, PS36, and PS40) and heparinases at the reported activity levels (S5 Table). The treated macrophages were then incubated at 37°C for 2 h. Following the two-hour incubation, the media was aspirated, and the macrophages were washed with 2ml of PBS three times before Cell Stripper (Corning 25-056-CI) was added to the cultures, which were then incubated at 37°C for 3 min. Detached macrophages were next centrifuged at 400 g for 5 min, the supernatant was aspirated, and the macrophage cell pellets were resuspended in formalin and incubated in the dark at room temperature for 30 min. Macrophages were then centrifuged for 5 min at 400 g, the supernatant was aspirated, and the macrophages were resuspended in 250 μL of PBS and kept at 4°C. The fixed macrophages were imaged using fluorescent microscopy within a week of the experiment. All fluorescent images from the phagocytosis experiments are available on Mendeley Data (doi: 10.17632/zrmgjyggmr.1). […]

[3] = tested on: BMDMs from PER1^-/-/PER2^-/- knockout (KO) mice; assay: Phagocytosis assay of HiLyte 488 labeled Aβ42 in clock knockout macrophages; type: cell-based, mouse
Description: (Fig 1B and 1C, S1 Fig). The extended harmonic circadian oscillator model (ECHO version 4.1) was used to analyze the average of the three replicates from each timepoint and predicted that Aβ42 total cellular florescence, and therefore the phagocytosis of Aβ42, oscillated with a circadian period (~26 h, ECHO p-value = 1.61 x 10^−6). Additionally, when compared with PER2 levels extrapolated based on the lumicycle data of the macrophages sampled, we saw that total cellular fluorescence was highest after the zenith of PER2 levels (Fig 1B and 1C). The Aβ42 phagocytosis experiment was then repeated using PER1^-/-/PER2^-/- knockout (KO) mice to confirm the circadian influence of this relationship. BMDMs from the knockout mice were extracted, derived into naïve macrophages, and synchronized as described above. KO macrophages were treated with fluorescently labeled Aβ42 for 2 h, in triplicate, every 4 h for 24 h starting at PS16.
PER2::LUC C57BL/6J male mice 3–6 months of age bred from Jackson Labs stock strains (Accession # 006852) were used for all WT experiments and were euthanized using CO2 gas and cervical dislocation. […]
Average cellular pixel intensities were used as a proxy for of Aβ phagocytosis. At least 100 cells measured per time point were analyzed using the above-described software. […]

## Amyloid-beta 42 labeled with HiLyte 488 [Aβ42]
[1]
  aggregation kinetics compared with Aβ40 (in words): higher aggregation kinetics
[2]
  Oscillation Type: Forced
[3]; 2 h treatment, in triplicate, every 4 h for 24 h starting at PS16, total cellular fluorescence
  oscillation of Aβ42 phagocytosis in knockout macrophages (in words): ablation of the zenith of fluorescence at PS32
[3]; ECHO v4.1 fit, average of 3 replicates, log10 mean cell fluorescence, 2 h uptake every 4 h from PS16, PER1-/-/PER2-/- KO BMDMs
  Oscillation Type: Damped
